Data on five compounds can be found in ChEMBL document CHEMBL1201862, “PubChem BioAssay data set” (2004).

The subject of assay [1] is HEK293. Nature of the assay: optical interference in Abeta FP readout, dose response, artefact control for IDE activator project, biochemical, fluorescence polarization (AID 588442). Format: functional, cell-based. Particulars: Homo sapiens.
In assay [2] the target is Beta-lactamase (Salmonella choleraesuis (strain SC-B67), UniProt Q5J463).
The subject of assay [3] is HEK293. Nature of the assay: membrane integrity loss in HEK cells – cell-based, fluorescence, cytotoxicity control for IDE activator project, dose response (AID 588440).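 Also: cytotoxicity by LDH release measuring loss of membrane integrity.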 Format: functional. Particulars: Homo sapiens.
Assay [4] has as its target G-protein coupled receptor 55 (Homo sapiens, UniProt Q9Y2T6). Briefly: inhibition of LPI-stimulated GPR55 beta-arrestin translocation – imaging, U2OS, beta-arrestin-GFP, LPI agonist, primary screen (AID 2013).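 Also: antagonist potency measured as reduced agonist-driven arrestin aggregation.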 Format: functional.
Assay [5] has as its target T1, Insulin-degrading enzyme (Homo sapiens, UniProt P14735).
T1 sequence (P14735 whole entry): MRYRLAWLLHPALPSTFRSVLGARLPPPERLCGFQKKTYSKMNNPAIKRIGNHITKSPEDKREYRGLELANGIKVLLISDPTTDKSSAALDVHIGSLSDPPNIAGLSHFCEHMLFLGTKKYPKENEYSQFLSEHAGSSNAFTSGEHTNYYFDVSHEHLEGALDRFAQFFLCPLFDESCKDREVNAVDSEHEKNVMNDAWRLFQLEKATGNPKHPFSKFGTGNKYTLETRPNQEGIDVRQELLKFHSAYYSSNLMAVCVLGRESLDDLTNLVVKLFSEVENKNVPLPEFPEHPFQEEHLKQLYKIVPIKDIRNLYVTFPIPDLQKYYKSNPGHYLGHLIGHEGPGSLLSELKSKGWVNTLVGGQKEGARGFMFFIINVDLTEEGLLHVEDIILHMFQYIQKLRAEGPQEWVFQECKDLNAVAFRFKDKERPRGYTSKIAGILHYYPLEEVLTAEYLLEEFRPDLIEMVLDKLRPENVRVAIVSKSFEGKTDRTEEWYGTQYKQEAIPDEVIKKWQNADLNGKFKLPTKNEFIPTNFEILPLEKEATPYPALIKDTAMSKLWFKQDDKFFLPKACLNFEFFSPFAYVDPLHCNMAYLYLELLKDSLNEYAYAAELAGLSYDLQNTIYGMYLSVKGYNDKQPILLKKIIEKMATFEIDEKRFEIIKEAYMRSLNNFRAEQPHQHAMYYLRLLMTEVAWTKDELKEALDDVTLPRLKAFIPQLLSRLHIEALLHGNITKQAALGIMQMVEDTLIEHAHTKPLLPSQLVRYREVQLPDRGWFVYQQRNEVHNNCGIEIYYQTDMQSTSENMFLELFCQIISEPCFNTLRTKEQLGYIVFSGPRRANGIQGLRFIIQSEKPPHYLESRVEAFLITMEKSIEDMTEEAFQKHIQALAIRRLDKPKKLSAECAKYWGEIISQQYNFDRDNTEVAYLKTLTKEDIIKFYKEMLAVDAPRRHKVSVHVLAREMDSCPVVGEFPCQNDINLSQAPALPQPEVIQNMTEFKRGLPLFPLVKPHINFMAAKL
Briefly: recombinant IDE activation, cell-free – biochemical, fluorescence polarization, counter-screen for IDE activator project, dose response (AID 588681).

For assay [6], the target named is T1, Insulin-degrading enzyme. Nature of the assay: cellular IDE activation of Abeta substrate cleavage – fluorescence polarization, HEK cells, dose response (AID 588439). Format: functional, cell-based.
Assay [7] has as its target Beta-lactamase (Pseudomonas aeruginosa, UniProt Q79MP6).
For assay [8], the target named is T2, C-C chemokine receptor type 6 (Homo sapiens, UniProt P51684).
T2 sequence (P51684 whole entry): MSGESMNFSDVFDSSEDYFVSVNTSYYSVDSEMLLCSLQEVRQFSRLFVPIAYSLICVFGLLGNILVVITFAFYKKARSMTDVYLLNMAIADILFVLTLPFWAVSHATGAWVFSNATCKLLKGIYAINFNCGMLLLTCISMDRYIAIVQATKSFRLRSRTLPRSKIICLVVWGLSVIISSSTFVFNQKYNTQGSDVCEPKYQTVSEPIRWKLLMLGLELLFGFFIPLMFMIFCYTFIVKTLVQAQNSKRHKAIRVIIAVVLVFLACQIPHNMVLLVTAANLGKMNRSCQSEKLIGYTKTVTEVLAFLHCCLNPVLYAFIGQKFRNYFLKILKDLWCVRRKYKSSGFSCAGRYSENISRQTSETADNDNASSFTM
Nature of the assay: antagonism of CCR6 beta-arrestin recruitment – cell-based, luminescent beta-arrestin readout, dose response (AID 504728). Format: functional.

The target of assay [9] is C-X-C chemokine receptor type 5 (Homo sapiens, UniProt P32302). Nature of the assay: inhibition of CXCL13-driven CXCR5 beta-arrestin recruitment – cell-based, luminescence, CHO-K1 PathHunter, selectivity assay for CCR6 antagonist project, SAR follow-up (AID 540340). The assay is classed as functional.
The target in assay [10] is Beta-galactosidase (Escherichia coli, UniProt Q8VNN2). Briefly: detection-enzyme interference by beta-gal modulators – biochemical, E. coli enzyme, set 3, artefact control for CCR6 antagonist project, dose response (AID 504712). Format: functional.
For assay [11], the target named is T2, C-C chemokine receptor type 6. Briefly: analog antagonism of CCR6 beta-arrestin signaling – cell-based, luminescent beta-arrestin readout, SAR follow-up (AID 540334). The assay is classed as functional.
In assay [12] the target is T3, Heat shock factor protein 1 (Mus musculus, UniProt P38532).
T3 sequence (P38532 whole entry): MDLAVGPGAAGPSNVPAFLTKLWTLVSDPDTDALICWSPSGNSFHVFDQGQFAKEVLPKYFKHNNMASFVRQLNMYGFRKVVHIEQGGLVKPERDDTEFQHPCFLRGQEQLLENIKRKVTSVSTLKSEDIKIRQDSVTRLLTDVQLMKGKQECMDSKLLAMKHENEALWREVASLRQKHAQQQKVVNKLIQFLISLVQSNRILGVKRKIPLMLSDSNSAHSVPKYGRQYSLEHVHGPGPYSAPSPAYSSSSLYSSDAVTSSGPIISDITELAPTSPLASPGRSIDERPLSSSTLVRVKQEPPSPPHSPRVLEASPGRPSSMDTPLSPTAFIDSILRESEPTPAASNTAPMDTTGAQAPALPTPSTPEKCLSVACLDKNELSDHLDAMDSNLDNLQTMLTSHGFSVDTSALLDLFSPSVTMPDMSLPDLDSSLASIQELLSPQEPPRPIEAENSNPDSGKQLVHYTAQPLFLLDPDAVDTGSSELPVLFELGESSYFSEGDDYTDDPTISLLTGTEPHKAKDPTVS
Nature of the assay: enhancement of HSF1-driven luciferase signal – cell-based, NIH3T3, luminescence, dose retest, confirmation (AID 435004).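 Also: stress induced by proteasome inhibitor MG132 added 30 min after compound; luciferase reporter driven by HSF1 response element in NIH3T3 cells; actives raise luminescence as potentiators of the MG132 stress response.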 Format: functional.

For assay [13], the target named is Apelin receptor (Homo sapiens, UniProt P35414). Briefly: apelin receptor antagonists, arrestin read-out – cell-based, luminescent, enzyme-fragment complementation, selectivity assay for CCR6 antagonist project, SAR follow-up (AID 588359). Format: functional.
The subject of assay [14] is INS1. Nature of the assay: suppression of NO production in INS-1E cells – cell-based, Griess absorbance, dry powder, set 2, dose response (AID 488868). The assay is classed as functional. Particulars: Rattus norvegicus.
Assay [15] in a line: suppression of NO production in INS-1E cells – cell-based, Griess absorbance, dry powder, set 3, dose response (AID 488870). Format: functional. The following applies: Rattus norvegicus.
Assay [16] is described as follows: THP-1 cell cytotoxicity, cytotoxicity control, set 4 (AID 504911). The assay is classed as functional. The following applies: Mycobacterium tuberculosis.
A short description of assay [17]: Vero cell cytotoxicity, dose response, cytotoxicity control for M. tuberculosis growth inhibitor project, Vero cells, purified and synthesized compounds, set 4 (AID 504854). The assay is classed as functional. The following applies: Mycobacterium tuberculosis.
In assay [18] the target is DNA dC->dU-editing enzyme APOBEC-3G (Homo sapiens, UniProt Q9HC16). Briefly: inhibition of APOBEC3G ssDNA deamination – biochemical, fluorescence, single-stranded DNA substrate, SAR follow-up (AID 602136). Format: functional. The following applies: read-out: IC50_Mean.
In assay [19] the target is DNA dC->dU-editing enzyme APOBEC-3A (Homo sapiens, UniProt P31941). Nature of the assay: SAR analysis of small molecule inhibitors of APOBEC3A DNA Deaminase via a fluorescence-based single-stranded DNA deaminase assay. The assay is classed as functional. The following applies: read-out: IC50_Mean.

SMILES strings stand for the structures. Activity calls are given as the source filed them.

Chain of DNA dC->dU-editing enzyme APOBEC-3A (P31941 whole entry): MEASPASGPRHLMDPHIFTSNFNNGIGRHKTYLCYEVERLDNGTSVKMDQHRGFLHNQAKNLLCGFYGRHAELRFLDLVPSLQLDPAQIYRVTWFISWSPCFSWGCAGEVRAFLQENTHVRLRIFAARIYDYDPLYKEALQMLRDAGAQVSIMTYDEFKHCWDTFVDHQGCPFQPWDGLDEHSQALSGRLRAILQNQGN
Chain of Apelin receptor (P35414 whole entry, the tested form may be a part): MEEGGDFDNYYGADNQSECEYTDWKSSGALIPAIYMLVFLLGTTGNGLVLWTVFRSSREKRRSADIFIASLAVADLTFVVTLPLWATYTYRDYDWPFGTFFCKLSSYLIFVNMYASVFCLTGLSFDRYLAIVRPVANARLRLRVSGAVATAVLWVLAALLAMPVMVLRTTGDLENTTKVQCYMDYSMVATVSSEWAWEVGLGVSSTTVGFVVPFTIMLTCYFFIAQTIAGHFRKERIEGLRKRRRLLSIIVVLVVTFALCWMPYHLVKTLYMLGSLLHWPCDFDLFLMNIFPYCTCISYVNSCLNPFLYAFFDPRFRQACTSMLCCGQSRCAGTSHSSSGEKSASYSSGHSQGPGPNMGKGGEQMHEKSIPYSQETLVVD
Chain of Beta-lactamase (Pseudomonas aeruginosa, UniProt Q79MP6) (Q79MP6 whole entry): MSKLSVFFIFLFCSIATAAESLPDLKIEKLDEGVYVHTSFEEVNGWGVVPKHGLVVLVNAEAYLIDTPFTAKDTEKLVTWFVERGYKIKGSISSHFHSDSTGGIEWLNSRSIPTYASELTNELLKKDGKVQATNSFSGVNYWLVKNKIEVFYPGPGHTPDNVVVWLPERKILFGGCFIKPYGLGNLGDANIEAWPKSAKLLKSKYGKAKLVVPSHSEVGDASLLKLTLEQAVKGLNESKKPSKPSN
Chain of G-protein coupled receptor 55 (Q9Y2T6 whole entry): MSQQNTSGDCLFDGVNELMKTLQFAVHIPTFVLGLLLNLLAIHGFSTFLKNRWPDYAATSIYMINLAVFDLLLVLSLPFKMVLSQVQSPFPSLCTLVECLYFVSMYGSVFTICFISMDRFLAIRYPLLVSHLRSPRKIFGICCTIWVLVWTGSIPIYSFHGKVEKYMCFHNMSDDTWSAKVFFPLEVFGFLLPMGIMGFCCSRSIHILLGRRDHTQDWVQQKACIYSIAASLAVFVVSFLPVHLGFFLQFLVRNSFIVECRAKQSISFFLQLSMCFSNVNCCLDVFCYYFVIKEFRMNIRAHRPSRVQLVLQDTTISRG
Chain of DNA dC->dU-editing enzyme APOBEC-3G (Q9HC16 whole entry): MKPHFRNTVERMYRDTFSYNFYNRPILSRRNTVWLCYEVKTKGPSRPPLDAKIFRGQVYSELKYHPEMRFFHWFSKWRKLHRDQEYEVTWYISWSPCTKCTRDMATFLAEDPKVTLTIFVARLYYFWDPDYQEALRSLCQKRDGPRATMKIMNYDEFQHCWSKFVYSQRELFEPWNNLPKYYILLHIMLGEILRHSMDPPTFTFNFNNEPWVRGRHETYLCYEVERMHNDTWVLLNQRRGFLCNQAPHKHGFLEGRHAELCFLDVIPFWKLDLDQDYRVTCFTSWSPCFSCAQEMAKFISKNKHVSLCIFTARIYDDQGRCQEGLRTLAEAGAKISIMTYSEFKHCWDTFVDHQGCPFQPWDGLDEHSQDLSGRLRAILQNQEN
Chain of Beta-galactosidase (Q8VNN2 whole entry): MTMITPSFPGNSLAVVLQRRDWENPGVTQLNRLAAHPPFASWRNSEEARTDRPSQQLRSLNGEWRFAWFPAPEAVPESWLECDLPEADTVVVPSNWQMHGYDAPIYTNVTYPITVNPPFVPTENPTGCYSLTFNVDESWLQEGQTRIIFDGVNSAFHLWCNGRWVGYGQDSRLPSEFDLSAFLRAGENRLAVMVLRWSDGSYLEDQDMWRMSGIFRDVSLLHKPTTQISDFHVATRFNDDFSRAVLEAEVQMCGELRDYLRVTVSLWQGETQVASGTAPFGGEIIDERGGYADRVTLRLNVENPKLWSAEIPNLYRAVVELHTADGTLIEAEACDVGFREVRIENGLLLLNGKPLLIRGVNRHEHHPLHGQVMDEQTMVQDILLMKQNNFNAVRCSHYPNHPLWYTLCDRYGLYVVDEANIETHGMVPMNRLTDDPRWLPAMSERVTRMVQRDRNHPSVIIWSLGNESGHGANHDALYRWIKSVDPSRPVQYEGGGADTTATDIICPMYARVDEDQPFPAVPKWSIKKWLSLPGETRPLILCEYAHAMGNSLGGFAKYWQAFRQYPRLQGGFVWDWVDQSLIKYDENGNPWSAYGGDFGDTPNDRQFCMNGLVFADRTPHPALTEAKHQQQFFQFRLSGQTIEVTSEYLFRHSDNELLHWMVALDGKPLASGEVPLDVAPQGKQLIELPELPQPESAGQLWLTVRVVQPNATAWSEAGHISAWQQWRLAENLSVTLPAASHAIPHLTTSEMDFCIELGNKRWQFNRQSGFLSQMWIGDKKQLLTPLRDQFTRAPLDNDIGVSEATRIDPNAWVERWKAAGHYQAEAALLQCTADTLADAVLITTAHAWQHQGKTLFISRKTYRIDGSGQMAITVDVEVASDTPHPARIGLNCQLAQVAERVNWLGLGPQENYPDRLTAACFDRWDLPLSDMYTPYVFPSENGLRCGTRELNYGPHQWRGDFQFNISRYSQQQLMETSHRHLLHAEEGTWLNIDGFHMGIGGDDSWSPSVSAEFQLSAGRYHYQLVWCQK
Chain of Beta-lactamase (Salmonella choleraesuis (strain SC-B67), UniProt Q5J463) (Q5J463 whole entry): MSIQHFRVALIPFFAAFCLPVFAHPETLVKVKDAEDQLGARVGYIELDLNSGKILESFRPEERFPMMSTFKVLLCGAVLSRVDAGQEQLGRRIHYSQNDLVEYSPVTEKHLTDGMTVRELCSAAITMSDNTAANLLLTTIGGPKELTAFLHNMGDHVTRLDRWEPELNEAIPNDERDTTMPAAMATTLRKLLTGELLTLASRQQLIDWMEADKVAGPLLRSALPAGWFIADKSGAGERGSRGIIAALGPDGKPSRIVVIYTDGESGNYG
Chain of C-X-C chemokine receptor type 5 (P32302 whole entry): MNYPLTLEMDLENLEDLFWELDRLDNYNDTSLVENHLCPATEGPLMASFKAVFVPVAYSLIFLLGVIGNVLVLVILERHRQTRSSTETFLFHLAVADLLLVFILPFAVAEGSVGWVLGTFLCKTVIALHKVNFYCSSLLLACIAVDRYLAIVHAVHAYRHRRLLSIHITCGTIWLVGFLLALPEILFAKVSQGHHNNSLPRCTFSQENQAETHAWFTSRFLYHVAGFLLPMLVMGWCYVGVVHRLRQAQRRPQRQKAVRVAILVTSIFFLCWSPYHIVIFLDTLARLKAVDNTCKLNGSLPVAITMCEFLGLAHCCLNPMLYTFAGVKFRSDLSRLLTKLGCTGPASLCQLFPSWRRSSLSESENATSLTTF

In the case of `CCN(CC)C1=CC2=CC(=C(C#N)C#N)CCC2CC1` (centres undefined), the EC50 in assay [1], in [5] and in [6] was > 54.7 µM (inactive) throughout. For the same compound, the IC50 in [2] was 1.34 µM (active); in assay [3], > 89.2 µM (inactive); in assay [4] it was 3 µM (active); in assay [7], 3.32 µM (active).
Consider `CN1C(=O)C(=C2CC(c3ccc(Cl)cc3)NN2)C(=O)N(C)C1=O` (centres undefined), for which the IC50 was 14.9 µM (active) in assay [8]; 9.24 µM (inactive) in assay [9]; > 66.6 µM (inactive) in assay [10]; 5.84 µM (active) in assay [11]; 7.22 µM (active) in assay [13]. Further, the EC50 in [12] is > 260 µM (inactive).
In the case of `C[C@@H]1CN([C@@H](C)CO)C(=O)c2cccc(NC(=O)Nc3cccc4ccccc34)c2O[C@H]1CN(C)S(=O)(=O)c1ccccc1F`, the AC50 is 48.6 µM (active) in assay [14] and 32.7 µM (active) in [15].
Regarding `O=C(CSc1nc2c(c(=O)[nH]1)CCC2)NC1CCCCC1`, the CC50 in assay [16] and in assay [17] was > 100 µM (active) throughout.
Turning to `CCn1c(SCC(=O)NCc2ccco2)nnc1-c1ccccc1O`, the IC50 in assay [18] and in assay [19] was > 99 µM (inactive) each time.
